Ki data for 74 compounds are collected here from patent US7998987B2, “Inhibitors of c-Met and uses thereof” (Vertex Pharmaceuticals Incorporated, priority 2005, dated 2011).

A value given as a limit tells only on which side of the number the result lay.

For the first test, the target named is c-Met (Homo sapiens, UniProt P08581). Put plainly: Ki determination for the inhibition of c-Met kinase activity (standard coupled enzyme system). The class given is biochemical.
Sequence of c-Met (P08581 25-1390): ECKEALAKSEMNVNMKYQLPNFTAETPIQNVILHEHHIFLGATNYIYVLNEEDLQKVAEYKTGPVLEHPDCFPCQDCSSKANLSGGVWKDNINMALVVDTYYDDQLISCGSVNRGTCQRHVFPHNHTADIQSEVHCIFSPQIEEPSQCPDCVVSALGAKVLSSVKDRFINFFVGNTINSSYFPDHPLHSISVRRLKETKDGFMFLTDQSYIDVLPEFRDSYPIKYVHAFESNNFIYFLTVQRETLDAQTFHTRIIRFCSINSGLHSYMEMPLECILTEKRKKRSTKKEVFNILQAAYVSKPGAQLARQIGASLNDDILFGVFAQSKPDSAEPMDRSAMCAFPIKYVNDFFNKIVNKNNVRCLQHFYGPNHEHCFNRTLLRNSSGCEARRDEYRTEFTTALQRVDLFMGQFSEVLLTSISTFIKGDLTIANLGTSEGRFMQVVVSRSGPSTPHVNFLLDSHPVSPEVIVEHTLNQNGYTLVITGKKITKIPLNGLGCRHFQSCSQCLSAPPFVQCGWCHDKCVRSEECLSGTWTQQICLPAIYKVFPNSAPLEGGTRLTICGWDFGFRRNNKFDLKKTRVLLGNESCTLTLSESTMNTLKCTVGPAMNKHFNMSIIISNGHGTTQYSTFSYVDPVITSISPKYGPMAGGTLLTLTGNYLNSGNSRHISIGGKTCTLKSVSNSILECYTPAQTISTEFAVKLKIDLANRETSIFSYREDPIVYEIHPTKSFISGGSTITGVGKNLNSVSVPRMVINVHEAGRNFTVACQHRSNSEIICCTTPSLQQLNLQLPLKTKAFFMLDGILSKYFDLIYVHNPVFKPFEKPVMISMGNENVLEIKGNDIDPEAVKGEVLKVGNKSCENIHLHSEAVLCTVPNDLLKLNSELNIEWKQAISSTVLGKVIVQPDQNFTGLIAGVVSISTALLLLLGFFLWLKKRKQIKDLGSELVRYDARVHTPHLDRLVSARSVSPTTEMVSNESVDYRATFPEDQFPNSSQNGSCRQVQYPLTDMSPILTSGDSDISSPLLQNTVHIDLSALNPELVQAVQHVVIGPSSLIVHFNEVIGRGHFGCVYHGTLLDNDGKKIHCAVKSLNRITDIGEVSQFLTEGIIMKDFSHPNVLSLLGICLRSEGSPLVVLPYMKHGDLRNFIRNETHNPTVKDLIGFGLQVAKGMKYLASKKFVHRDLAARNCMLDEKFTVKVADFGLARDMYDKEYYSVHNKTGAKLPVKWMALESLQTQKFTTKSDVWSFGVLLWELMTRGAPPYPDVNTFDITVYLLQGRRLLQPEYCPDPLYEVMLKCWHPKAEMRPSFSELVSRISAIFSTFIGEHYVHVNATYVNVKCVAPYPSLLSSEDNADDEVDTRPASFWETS
Settings: not given
On the procedure:
Ki Determination for the Inhibition of c-Met
Reactions were carried out in a solution containing 100 mM HEPES (pH 7.5), 10 mM MgCl2, 25 mM NaCl, 300 μM NADH, 1 mM DTT, and 1.5% DMSO. Final substrate concentrations in the assay were 200 μM ATP (Sigma Chemicals, St Louis, Mo.) and 10 μM polyGluTyr (Sigma Chemical Company, St. Louis). Reactions were carried out at 30° C. and 80 nM c-Met. Final concentrations of the components of the coupled enzyme system were 2.5 mM phosphoenolpyruvate, 300 μM NADH, 30 μg/ml pyruvate kinase and 10 μg/ml lactate dehydrogenase.
An assay stock buffer solution was prepared containing all of the reagents listed above with the exception of ATP and a test compound of the present invention. […] The reaction was initiated by the addition of 20 μL of ATP (final concentration 200 μM). Rates of reaction were obtained using a Molecular Devices Spectramax plate reader (Sunnyvale, Calif.) over 10 minutes at 30° C. The Ki values were determined from the rate data as a function of inhibitor concentration.
For the compound `C[C@@H](c1ccc(OP(=O)(O)O)cc1)c1nnc2sc(Nc3cccc(Cl)c3)nn12` [Compound 170], the Ki (commonly the equilibrium dissociation constant of an inhibitor or competing ligand from its target) lay in the range of 100 to 2000 nM.

Staying with this test, now noted: coupled enzyme system, 200 μM ATP, 10 μM polyGluTyr, 80 nM c-Met, 30° C.; read-out: c-Met Ki.
In the case of `Fc1c(Cl)cccc1Nc1nn2c(Cc3ccc4c(c3)OCO4)nnc2s1` [Compound 126], the Ki was in the range of 100 to 2000 nM.

Consider `Fc1cc(F)cc(Nc2nn3c(Cc4ccc5c(c4)OCO5)nnc3s2)c1` [Compound 127], for which the Ki is under 100 nM.

Regarding `Oc1ccc(Cc2nnc3sc(Nc4cccc(F)c4F)nn23)cc1Cl` [Compound 128], the Ki was under 100 nM.

With `Oc1ccc(Cc2nnc3sc(Nc4cccc(Cl)c4F)nn23)cc1F` [Compound 130], the Ki was 100 to 2000 nM.

With `Oc1ccc(Cc2nnc3sc(Nc4cc(F)cc(F)c4)nn23)cc1F` [Compound 131], the Ki is under 100 nM.

For `CC(c1ccc(O)cc1)c1nnc2sc(Nc3cccc(Cl)c3F)nn12` (centres unmarked) [Compound 132], the Ki is under 100 nM.

As for `CC(c1ccc(O)cc1)c1nnc2sc(Nc3cc(F)cc(F)c3)nn12` (centres unmarked) [Compound 133], the Ki is under 100 nM.

For `Fc1cccc(Nc2nn3c(Cn4ccc5ncccc54)nnc3s2)c1` [Compound 134], the Ki lay within 100 to 2000 nM.

Consider `Cc1cccc(Nc2nn3c(Cn4ccc5ncccc54)nnc3s2)c1` [Compound 135], for which the Ki fell in the range of 100 to 2000 nM.

Take `FC(F)(F)c1cccc(Nc2nn3c(Cn4ccc5ncccc54)nnc3s2)c1` [Compound 136]: the Ki is under 100 nM.

In the case of `Oc1cccc(Cc2nnc3sc(Nc4cccc(C(F)(F)F)c4)nn23)c1` [Compound 137], the Ki lay within 100 to 2000 nM.

In the case of `CC(c1ccc(O)cc1)c1nnc2sc(Nc3cccc(C(F)(F)F)c3)nn12` (centres unmarked) [Compound 138], the Ki is under 100 nM.

Regarding `COc1ccc([C@H](C)c2nnc3sc(Nc4cccc(Cl)c4)nn23)cc1` [Compound 157], the Ki was in the range of 100 to 2000 nM.

`COc1ccc([C@H](C)c2nnc3sc(Nc4cccc(F)c4)nn23)cc1` [Compound 158]: the Ki fell in the range of 100 to 2000 nM.

Consider `C[C@@H](c1ccc(O)cc1)c1nnc2sc(Nc3ccc(F)c(Cl)c3)nn12` [Compound 159], for which the Ki was under 100 nM.

For the compound `Oc1cccc2c1ccn2Cc1nnc2sc(Nc3cccc(C(F)(F)F)c3)nn12` [Compound 160], the Ki is under 100 nM.

With `CC(c1nnc2sc(Nc3cccc(Cl)c3)nn12)n1ccc2ncccc21` (centres unmarked) [Compound 161], the Ki was under 100 nM.

`C[C@@H](c1ccc(O)cc1)c1nnc2sc(Nc3cncc(Cl)c3)nn12` [Compound 162]: the Ki is under 100 nM.

Consider `CC(Oc1ccc2ncccc2c1)c1nnc2sc(Nc3cccc(Cl)c3)nn12` (centres unmarked) [Compound 163], for which the Ki is over 2000 nM.

For `CC(Oc1ccc2cccnc2c1)c1nnc2sc(Nc3cccc(Cl)c3)nn12` (centres unmarked) [Compound 164], the Ki is over 2000 nM.

Turning to `CC(C)[C@@H](N)C(=O)Oc1ccc([C@H](C)c2nnc3sc(Nc4cccc(F)c4)nn23)cc1` [Compound 165], the Ki was under 100 nM.

Turning to `C[C@@H](c1ccc(OC(=O)[C@@H](C)N)cc1)c1nnc2sc(Nc3cccc(F)c3)nn12` [Compound 166], the inhibitory constant (Ki) was under 100 nM.

`C[C@@H](c1ccc(OC(=O)[C@@H](C)N)cc1)c1nnc2sc(Nc3cccc(Cl)c3)nn12` [Compound 167]: the Ki is under 100 nM.

As for `CC(C)[C@@H](N)C(=O)Oc1ccc([C@H](C)c2nnc3sc(Nc4cccc(Cl)c4)nn23)cc1` [Compound 168], the Ki was under 100 nM.

For `CSc1cccc(Nc2nn3c(Cn4ccc5c(O)cccc54)nnc3s2)c1` [Compound 169], the Ki was under 100 nM.

Turning to `Fc1ccc(Cc2nnc3sc(Nc4cccc(Cl)c4)nn23)cc1` [Compound 171], the inhibitory constant (Ki) is under 100 nM.

With `C[C@@H](c1ccc(O)c(C(C)(C)C)c1)c1nnc2sc(Nc3cccc(F)c3)nn12` [Compound 172], the Ki fell in the range of 100 to 2000 nM.

In the case of `CC(C)Oc1cccc(Nc2nn3c([C@@H](C)c4ccc(O)cc4)nnc3s2)c1` [Compound 173], the Ki is under 100 nM.

For `Oc1ccc(Cc2nnc3ccc(Cl)nn23)cc1` [Compound 174], the Ki fell in the range of 100 to 2000 nM.

With `Oc1ccc(Cc2nnc3ccc(-c4ccccc4)nn23)cc1` [Compound 176], the Ki lay in the range of 100 to 2000 nM.

Turning to `Oc1ccc(Cc2nnc3ccc(N4CCCCC4)nn23)cc1` [Compound 177], the Ki fell in the range of 100 to 2000 nM.

As to `Oc1ccc(Cc2nnc3ccc(Nc4ccccc4)nn23)cc1` [Compound 178], the Ki is under 100 nM.

As for `NC(=O)C1CCCN(c2ccc3nnc(Cc4ccc(O)cc4)n3n2)C1` (centres unmarked) [Compound 179], the Ki is over 2000 nM.

As to `Oc1ccc(Cc2nnc3ccc(NCCCn4ccnc4)nn23)cc1` [Compound 180], the Ki was in the range of 100 to 2000 nM.

Consider `CC(C)Oc1cccc(Nc2ccc3nnc(Cc4ccc(O)cc4)n3n2)c1` [Compound 181], for which the inhibitory constant (Ki) was under 100 nM.

For `CC(C)(C)c1cccc(Nc2ccc3nnc(Cc4ccc(O)cc4)n3n2)c1` [Compound 182], the Ki was under 100 nM.

In the case of `CCC(C)c1ccc(Nc2ccc3nnc(Cc4ccc(O)cc4)n3n2)cc1` (centres unmarked) [Compound 183], the Ki was in the range of 100 to 2000 nM.

For the compound `COc1cccc(Nc2ccc3nnc(Cc4ccc(O)cc4)n3n2)c1` [Compound 184], the Ki is under 100 nM.

`Oc1ccc(Cc2nnc3ccc(Nc4cccc(Cl)c4)nn23)cc1` [Compound 185]: the Ki is under 100 nM.

Consider `Oc1ccc(Cc2nnc3ccc(Nc4ccc(Cl)cc4)nn23)cc1` [Compound 186], for which the Ki is 100 to 2000 nM.

With `Oc1ccc(Cc2nnc3ccc(NCC4CCCO4)nn23)cc1` (centres unmarked) [Compound 187], the Ki is 100 to 2000 nM.

Consider `CC(C)C[C@@H](CO)Nc1ccc2nnc(Cc3ccc(O)cc3)n2n1` [Compound 188], for which the Ki was 100 to 2000 nM.

Turning to `C[C@@H](Nc1ccc2nnc(Cc3ccc(O)cc3)n2n1)C1CCCCC1` [Compound 189], the Ki fell in the range of 100 to 2000 nM.

For `O=C1CCN(c2ccc3nnc(Cc4ccc(O)cc4)n3n2)CCN1` [Compound 190], the Ki was in the range of 100 to 2000 nM.

For `OC[C@H](Cc1ccccc1)Nc1ccc2nnc(Cc3ccc(O)cc3)n2n1` [Compound 191], the Ki is over 2000 nM.

Regarding `Oc1ccc(Cc2nnc3ccc(N[C@@H]4C[C@H]4c4ccccc4)nn23)cc1` [Compound 192], the Ki was over 2000 nM.

`CC(C)[C@H](C)Nc1ccc2nnc(Cc3ccc(O)cc3)n2n1` [Compound 193]: the Ki lay in the range of 100 to 2000 nM.

For the compound `COc1cccc(N2CCN(c3ccc4nnc(Cc5ccc(O)cc5)n4n3)CC2)c1` [Compound 194], the Ki lay in the range of 100 to 2000 nM.

As to `Oc1ccc(Cc2nnc3ccc(NCC4CCCCC4)nn23)cc1` [Compound 195], the Ki was 100 to 2000 nM.

Consider `CN(c1ccc2nnc(Cc3ccc(O)cc3)n2n1)C1CCCCC1` [Compound 196], for which the Ki was 100 to 2000 nM.

For `CCN1CCCC1CNc1ccc2nnc(Cc3ccc(O)cc3)n2n1` (centres unmarked) [Compound 197], the Ki is over 2000 nM.

In the case of `OCCCCNc1ccc2nnc(Cc3ccc(O)cc3)n2n1` [Compound 198], the Ki is 100 to 2000 nM.

Regarding `O=C1CCCN1CCCNc1ccc2nnc(Cc3ccc(O)cc3)n2n1` [Compound 199], the Ki is over 2000 nM.

Take `Oc1ccc(Cc2nnc3ccc(N4CCC[C@H]4CN4CCCC4)nn23)cc1` [Compound 200]: the inhibition constant (Ki) was over 2000 nM.

Regarding `Oc1ccc(Cc2nnc3ccc(N4CCC(c5ccccc5)C4)nn23)cc1` (centres unmarked) [Compound 201], the Ki is over 2000 nM.

With `Oc1ccc(Cc2nnc3ccc(N4CCCC4c4ccc(F)cc4)nn23)cc1` (centres unmarked) [Compound 202], the Ki is over 2000 nM.

As for `NC(=O)[C@H]1CCC[C@H]1Nc1ccc2nnc(Cc3ccc(O)cc3)n2n1` [Compound 203], the inhibition constant Ki is over 2000 nM.

Regarding `Oc1ccc(Cc2nnc3ccc(NCCN4CCOCC4)nn23)cc1` [Compound 204], the Ki is over 2000 nM.

`Oc1ccc(Cc2nnc3ccc(N4CCC(CCc5ccccc5)C4)nn23)cc1` (centres unmarked) [Compound 205]: the Ki lay in the range of 100 to 2000 nM.

As to `COc1ccc(Cc2nnc3ccc(-c4ccccc4)nn23)cc1OC` [Compound 206, 3-(3,4-dimethoxybenzyl)-6-phenyl-[1,2,4]triazolo[4,3-b]pyridazine], the Ki was over 2000 nM.

In the case of `c1ccc(-c2ccc3nnc(Cc4ccc5c(c4)OCO5)n3n2)cc1` [Compound 207], the Ki lay in the range of 100 to 2000 nM.

Consider `c1ccc(-c2ccc3nnc(CNc4cccnc4)n3n2)cc1` [Compound 208], for which the Ki was over 2000 nM.

As for `CC(=O)Nc1ccc(NCc2nnc3ccc(-c4ccccc4)nn23)cc1` [Compound 209], the Ki was over 2000 nM.

Turning to `CC(=O)Nc1cccc(NCc2nnc3ccc(-c4ccccc4)nn23)c1` [Compound 210], the Ki is over 2000 nM.

As to `c1ccc(-c2ccc3nnc(CNc4ccncc4)n3n2)cc1` [Compound 211], the Ki is over 2000 nM.

As for `CN(C)c1ccc(Cc2nnc3ccc(-c4ccccc4)nn23)cc1` [Compound 212], the Ki is over 2000 nM.

With `Oc1ccc(Cc2nnc3ccc(-c4ccccc4)nn23)cc1F` [Compound 213], the Ki fell in the range of 100 to 2000 nM.

As to `Oc1ccc(Cc2nnc3ccc(NC4CCCCC4)nn23)cc1` [Compound 214], the Ki was under 100 nM.

As to `Cc1cc(Nc2ccc3nnc(Cc4ccc(O)cc4)n3n2)ccc1Cl` [Compound 215], the Ki is under 100 nM.

As to `O=c1[nH]c2ccc(Nc3ccc4nnc(Cc5ccc(O)cc5)n4n3)cc2[nH]1` [Compound 216], the Ki is under 100 nM.

With `Oc1ccc(Cc2nnc3ccc(NC4c5ccccc5CC4O)nn23)cc1` (centres unmarked) [Compound 217], the Ki is 100 to 2000 nM.

In the case of `O=c1ccn(Cc2nnc3ccc(-c4ccccc4)nn23)cc1` [Compound 218], the Ki is over 2000 nM.

With `Oc1ccc(Cc2nnc3ccc(Nc4cccc(F)c4)nn23)cc1Cl` [Compound 219], the Ki is under 100 nM.
